Measurements: patent US20260008768A1, “UREA DERIVATIVES FOR INHIBITING NLRP3 AND USES THEREOF” (VENTUS THERAPEUTICS U.S., INC., priority 2023, published 2026)

Tests used:
[1] = molecular target: T1, human NLRP3 (Homo sapiens, UniProt Q96P20); assay: Scintillation Proximity (SPA) NLRP3 Assay, displacement of 3H-MCC950; format: binding; conditions: for IC50: displacement of 3H-MCC950 from human NLRP3
How it was run: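 Displacement of radioligand 3H-MCC950 (125 nM final) from 350 nM human NLRP3, read by scintillation proximity after 6 h equilibration with PVT beads. Buffer: 20 mM HEPES pH 7.5, 150 mM NaCl, 5 mM MgCl2, 100 μM ADP; compound preincubated 15 min, ligand 60 min, RT. IC50 from specific binding.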

[2] = molecular target: T1, human NLRP3; assay: Human Whole Blood (hWB) NLRP3 Assay (LPS/ATP, IL-1β); format: cell-based; design: host or cells: human whole blood from healthy volunteers (A3)
How it was run: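 Heparinized healthy-donor human whole blood primed with LPS 1 μg/ml for 4.5 h, with compound added 30 min before ATP activation, or compound added 30 min before 5 h LPS priming. ATP stimulation for 30 min at 37 °C, then plasma IL-1β measured by MSD immunoassay to give IC50.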

T1 sequence (Q96P20 whole entry): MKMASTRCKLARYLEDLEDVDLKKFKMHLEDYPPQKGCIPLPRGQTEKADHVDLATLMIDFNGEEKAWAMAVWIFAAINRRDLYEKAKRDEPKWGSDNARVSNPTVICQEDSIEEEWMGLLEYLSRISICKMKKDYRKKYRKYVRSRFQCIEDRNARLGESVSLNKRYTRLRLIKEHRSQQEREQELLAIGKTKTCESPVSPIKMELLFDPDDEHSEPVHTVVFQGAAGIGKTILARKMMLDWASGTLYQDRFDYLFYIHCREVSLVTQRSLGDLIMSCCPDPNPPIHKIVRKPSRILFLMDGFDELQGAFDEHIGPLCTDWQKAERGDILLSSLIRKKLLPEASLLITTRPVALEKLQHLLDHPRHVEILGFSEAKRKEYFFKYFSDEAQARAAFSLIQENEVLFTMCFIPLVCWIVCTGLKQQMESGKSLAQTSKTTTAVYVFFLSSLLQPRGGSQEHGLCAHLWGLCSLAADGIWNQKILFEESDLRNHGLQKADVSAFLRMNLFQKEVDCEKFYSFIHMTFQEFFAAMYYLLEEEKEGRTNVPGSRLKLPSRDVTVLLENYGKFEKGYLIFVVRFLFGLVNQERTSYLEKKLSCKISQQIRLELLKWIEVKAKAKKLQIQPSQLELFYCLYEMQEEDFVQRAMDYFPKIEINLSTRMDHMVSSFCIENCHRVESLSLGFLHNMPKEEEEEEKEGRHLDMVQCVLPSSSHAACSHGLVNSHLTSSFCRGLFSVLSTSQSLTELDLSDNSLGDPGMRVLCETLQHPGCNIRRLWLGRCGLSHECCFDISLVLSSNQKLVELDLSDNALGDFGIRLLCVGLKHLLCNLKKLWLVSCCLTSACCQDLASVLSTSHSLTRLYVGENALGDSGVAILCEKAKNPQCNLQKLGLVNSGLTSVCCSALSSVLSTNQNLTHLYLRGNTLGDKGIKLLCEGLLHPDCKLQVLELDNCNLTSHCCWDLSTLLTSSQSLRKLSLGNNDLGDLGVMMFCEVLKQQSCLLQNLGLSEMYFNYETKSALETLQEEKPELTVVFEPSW

IC50 ([1]; Table B, activity class)	IC50 ([1]; Table C)	IC50 ([2]; Table B, activity class)	IC50 ([2]; Table C)	fold improvement in binding activity (SPA IC50) ([1]; relative to Comparative Example B1)	fold increase in binding activity (SPA IC50) ([1]; relative to Compound 39A)	SMILES
< 1 µM	0.2 µM	< 1 µM	0.3 µM			C[C@@H]1CCN(c2nnn[nH]2)C[C@H](NC(=O)N(C)c2ccc(OC(F)(F)F)cc2)C1 (single isomer, unassigned) [10A*]
< 1 µM	0.096 µM	< 1 µM	0.15 µM	> 1950 fold		C[C@@H]1CCN(c2nnn[nH]2)C[C@H](NC(=O)N(C)c2ccc(Cl)cc2)C1 (single isomer, unassigned) [4A*]
< 1 µM	0.14 µM	< 1 µM	0.058 µM		5.9 fold	C[C@@H]1CCN(c2nnn[nH]2)C[C@H](NC(=O)N(C)c2ccc(OC(F)F)cc2)C1 (single isomer, unassigned) [11A*]
